According to US20260217863A1, “ANTIBODY OR PEPTIDE BINDING SPECIFICALLY TO RNASE A, IMMUNOASSAY DEVICE AND METHOD FOR DETECTING RNASE A, AND METHOD FOR COLLECTING RNASE A” (UIF (University Industry Foundation), Yonsei University, priority 2022, published 2026):

Assays:
RNase A [1] = target: T1, RNase A (Bos taurus, UniProt P61823); assay: RNase activity test kit, modified Taq-man RNA probe analysis (ab273299); assay type: biochemical; parameters: purchased Abcam ab273299; details: inhibitor 1 μM; after 60 minutes; positive control (no inhibitor) = 100%
T1 sequence (P61823 27-150): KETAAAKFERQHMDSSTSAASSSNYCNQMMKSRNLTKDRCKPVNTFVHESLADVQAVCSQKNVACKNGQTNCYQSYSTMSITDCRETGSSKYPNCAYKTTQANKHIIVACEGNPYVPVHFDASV
Experimental: The activity of RNase A, which degrades RNA, was evaluated using specially designed RNA probes. This RNase A analysis was performed using a commercial RNase activity test kit based on a modified Taq-man probe analysis (ab273299) from Abcam (Cambridge, UK). To compare inhibitory activity, three synthetic peptides (peptide-1, peptide-2, peptide-3) and three expressed Fv-antibodies (Fv-1, Fv-2, and Fv-3) were compared using two types of commercially available RNase inhibitors from Biofact™ (Daejeon, South Korea) and two types of RNaseOUT™ from Thermofisher (USA). The probes for the RNase inhibition analysis contained RNA probes with fluorescent dyes and quenching materials at each end of the RNA sequence. […] To estimate the RNase A inhibitory activity by the three synthesized peptides, each peptide was treated at a concentration of 1 μM using the analysis kit, and RNase activity was measured. The positive control was prepared to have an RNase reaction without an inhibitor, and the negative control was prepared to have an RNase reaction without the RNA probe. […] The RNase A inhibitory activity of the three synthesized peptides was analyzed after treating each peptide at a concentration range of 100 μM to 1 μM in the assay kit. […] The RNase A inhibitory activity of the three expressed Fv-antibodies was analyzed after treating each peptide at a concentration range of 100 μM to 1 μM in the analysis kit.
The activity of RNase A, which degrades RNA, was evaluated using specially designed RNA probes. This RNase A analysis was performed using a commercial RNase activity test kit based on a modified Taq-man probe analysis (ab273299) from Abcam (Cambridge, UK). For the comparison of inhibitory activity, three synthetic peptides (Peptide-1, Peptide-2, Peptide-3) and three expressed Fv-antibodies (Fv-1, Fv-2, and Fv-3) were compared using two types of commercially available RNase inhibitors from Biofact™ (Daejeon, South Korea) and two types of RNaseOUT™ from Thermofisher (USA). The probes for the RNase inhibition analysis contain RNA probes with fluorescent dyes and fluorescent quenchers at each end of the RNA nucleotide sequence.
To estimate the RNase A inhibitory activity of the three synthesized peptides, each peptide was treated at a concentration of 1 μM using an assay kit, and the RNase activity was evaluated. The positive control was prepared to have an RNase reaction without the inhibitor, while the negative control was prepared to have an RNase reaction without the RNA probe.
The RNase A inhibitory activity of the three synthesized peptides was analyzed after treating each peptide at a concentration range of 100 μM to 1 μM with the RNase A from the assay kit.

RNase A [2] = target: T1, RNase A; assay: RNA cleavage assay with total RNA from HeLa cells, agarose gel imaging; assay type: biochemical, bovine; parameters: Ribonuclease A (Type II-A) from bovine pancreas; purchased Sigma-Aldrich Korea; host or cells: bovine pancreas; details: RNase 0.7 μg/ml, agarose gel image analysis, read-out: IC50 for RNase A activity inhibition
Experimental: The analysis of RNase inhibitory activity of Fv antibodies and synthetic peptides was performed using RNA samples extracted from HeLa cells as follows: (1) Mixing the RNA sample extracted from HeLa cells (600 ng) with 87.5 nM-5.6 μM under conditions of 37° C. for 30 minutes, (2) Electrophoresis on a 1% agarose gel at 90 V for 40 minutes. The estimation of RNase inhibitory activity was carried out by gel imaging of the cleaved RNA using a ChemiDoc XPS (Bio-Rad, CA, USA).
(§1) Using RNA samples extracted from HeLa cells, the RNase inhibitory activity of the synthesized peptides was estimated. The RNase inhibitory activity was assessed using agarose gel imaging of the cleaved RNA. To optimize the RNase concentration for the RNase inhibition assay, total RNA was treated with RNase A (600 ng), with RNase A concentrations ranging from 5.7 ng/ml to 3.6 μg/ml, and the cleaved RNA bands were observed after treatment with ETBR (ethidium bromide). […] The RNase concentration for inhibition analysis was determined to be 0.7 μg/ml, with RNase concentrations above 3.6 μg/ml. The inhibition analysis was performed by mixing total RNA from HeLa cells with RNase (0.7 μg/ml) and Fv-antibody at a concentration of 10 μM, resulting in the observation that the entire RNA was completely cleaved into small RNA bands in the absence of the Fv-antibody. […] The optimal concentration of the Fv-antibody for RNase inhibition was determined by the cleavage reaction with total RNA in the concentration range of 87.5 nM to 5.6 μM for Fv-antibodies (Fv-1, Fv-2, Fv-3).
The analysis of RNase inhibitory activity of Fv antibodies and synthetic peptides was performed using RNA samples extracted from HeLa cells as follows: (1) A mixture of RNA samples extracted from HeLa cells (600 ng) was prepared at concentrations of 87.5 nM-5.6 μM and incubated at 37° C. for 30 minutes; (2) Electrophoresis was conducted in a 1% agarose gel under 90 V for 40 minutes. The estimation of RNase inhibitory activity was carried out by gel imaging of the cleaved RNA using a ChemiDoc XPS (Bio-Rad, CA, USA).
as §1, with “the” for “the concentration”

relative inhibition level / reduction of RNase A activity (RNase A [1]) [%] | IC50 (RNase A [2]) [µM] | Substance
35.8 | 0.257 | Inhibitor-1 [reference compound]
27.2 | 0.381 | Inhibitor-2 [reference compound]
